Test system: DSS-colitis in WT mice
Test: DSS-induced acute colitis in WT C57BL/6 mice after pre-treatment
Assay type: in vivo, mouse
Details: CEA alone, Pan alone or coadministration

SMILES | influence on DSS-colitis, single or combined administration
CC(C)(CO)[C@@H](O)C(=O)NCCC(=O)O [Pan, 3-[(2R)-(2,4-Dihydroxy-3,3-dimethylbutanoyl)amino]propanoic acid] | delayed colitis development
NCCS [CEA, 2-aminoethanethiol] | poor influence
